In patent US20070274923A1, “Non-invasive real-time in vivo bioluminescence imaging of local Ca2+ dynamics in living organisms” (priority 2005, published 2007):

Tests used:
[1] = tested on: Ca^2+ oscillations in somatosensory cortex slices; assay: Mitochondrial Ca2+ oscillations in organotypic somatosensory cortex slices of mtGA transgenic mice (bioluminescence imaging); assay type: cell-based, mouse; details: 50 μM; oscillations generated by removal of Mg2+ from buffer; slices of P4 mtGA mice
cortical neurons = assay: Single-cell bioluminescence imaging of transfected cortical neurons; assay type: cell-based; details: cortical neurons with non-targeted GA reconstituted with h coelenterazine
Protocol: Cultures were plated on to glass-bottomed dishes and mounted to a stage adapter on a fully automated inverted microscope mounted in a black-box. GFP-Aequorin was reconstituted with 2.5-5 μM coelenterazine for 30 minutes at 37° C. Incubation of cells with coelenterazine that had been transfected with SynGA was undertaken at room temperature to reduce the consumption of the photoprotein during the reconstitution process. Cells were perfused with tyrodes buffer. Prior to bath application of NMDA, cells were perfused for 1 minute without Mg^2+. All recordings were made at room temperature (22-25° C.). […]
The fluorescence/bioluminescence wide field microscopy system was custom built by ScienceWares, Inc. The system includes a fully automated inverted microscope (200M, Zeiss Germany) and is housed in a light-tight dark box. […] Low level light emission (photon rate<100 kHz), was collected using an Image Photon Detector (IPD 3, Photek Ltd.) connected to the baseport of the microscope, which assigns an X, Y coordinate and time point for each detected photon (Miller et al., 1994). The system is fully controlled by the data acquisition software, which also converts single photon events into an image that can be superimposed with brightfield or fluorescence images made by a connected CCD camera to the C-port (Coolsnap HQ, Roper Scientific). […]

N[C@H](CCCP(=O)(O)O)C(=O)O [D-APV]
effect on Ca2+ oscillations detected within the mitochondrial matrix [1]: completely and reversibly blocked

[Cl-].[K+] [KCl]
Ca2+-induced bioluminescence signal (cortical neurons; 90 mM): robust signal

CN[C@H](CC(=O)O)C(=O)O [NMDA]
Ca2+-induced bioluminescence signal (cortical neurons; 100 μM): robust signal
